Consider three molecules from patent US11415579B2, “Assay for measuring a rate of reaction between a target and a ligand candidate” (Imperial College Innovations Ltd., priority 2016, dated 2022).

Assay [1] can be described thus: Kinetic thiol consumption assay with model thiol glutathione. It is filed as physicochemical. Details: Rate constant with glutathione (k(GSH)): unit not given here. The following applies: for Rate constant with glutathione (k(GSH)): 500 μM ligand, 5 μM thiol, phosphate buffer pH 8; for Rate constant with Glutathione: Protein: Glutathione, cysteine position NA, in h-1. The procedure, abridged:
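First, 5 μM glutathione in degassed phosphate buffer (pH 8) receives immobilized TCEP beads (2% v/v). Then acrylamide is added and plates incubate 1 h at room temperature. Finally, fluorescence (380/470 nm) is normalized and fitted to first-order decay for rate constants.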

Assay [2] deals with T1, human cyclin-dependent kinase 2 (Cdk2) (Homo sapiens, UniProt P24941).
T1 construct: poly-histidine; made in house; host or cells: E. coli
In words: Kinetic thiol consumption assay with wild type Cdk2 (C177). The format is binding. Further details: key to Rate enhancement, Cdk2 WT: k(Cdk2) divided by k(model thiol); Rate constant with Cdk2 (k(Cdk2)): unit not given here. The following applies: for Rate constant with Cdk2 (k(Cdk2)): 500 μM ligand, 5 μM thiol, phosphate buffer pH 8; for Rate enhancement, Cdk2 WT: no additional mutations; for Rate constant with Cdk2 WT: Protein: Cdk2, cysteine position WT, in h^-1; for k(Cdk2)/k(Cdk2_mut) rate enhancement: model thiol Cdk2[C177A, F80C, K278C]; for k(Cdk2)/k(GSH) rate enhancement: model thiol glutathione. Summed up: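 His-tagged human Cdk2 (single surface cysteine C177), expressed in E. coli, or a model thiol at 5 μM in degassed phosphate buffer pH 8 was pre-treated with immobilized TCEP beads (2% v/v) before acrylamide addition. Fluorescence (ex/em 380/470 nm) was read after 1 h at room temperature, normalized to DMSO/thiol-only control and plotted versus time.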

The next assay deals with T2, Cdk2[C177A, F80C, K278C] (Homo sapiens, UniProt P24941, C177A/F80C/K278C).
T2 construct: poly-histidine; made in house; host or cells: E. coli
The assay is described as follows: Kinetic thiol consumption assay with mutant Cdk2 as model thiol. Details: unit not given here. It is filed as binding. Conditions: 500 μM ligand, 5 μM thiol, phosphate buffer pH 8. The procedure, abridged:
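First-order rate constants were derived by exponential-decay fitting of DMSO/thiol-normalized fluorescence (380/470 nm) over time at room temperature. Thiol was 5 μM E. coli-expressed His-tagged Cdk2 mutant C177A/F80C/K278C in degassed pH 8 phosphate buffer containing 2% v/v TCEP beads.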

The target in the next assay is T3, Cdk2(C177A, F80C) (Homo sapiens, UniProt P24941, C177A/F80C).
T3 construct: poly-histidine; made in house; host or cells: E. coli
In words: Kinetic thiol consumption assay with Cdk2 mutant F80C, incl. kobs versus concentration (Kd, k2). The format is binding. Details: key to Rate enhancement, Cdk2 F80C: Cdk2 rate constant divided by model-thiol rate constant. The following applies: additional mutation C177A. Summed up:
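His-tagged Cdk2(C177A/F80C) from E. coli or model thiol, 5 μM in degassed phosphate buffer pH 8 with TCEP beads, reacted with acrylamide ligands; fluorescence (ex/em 380/470 nm) normalized to DMSO control and fitted to first-order decay for kobs. Kd and k2 obtained from hyperbolic fit of kobs versus ligand concentration.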

The target in another assay is T4, Cdk2(H71C) (C177A) (Homo sapiens, UniProt P24941, C177A/H71C).
T4 construct: poly-histidine; made in house; host or cells: E. coli
The assay is described as follows: Kinetic thiol consumption assay with Cdk2 mutant H71C. The format is binding. Further details: key to Rate enhancement, Cdk2 H71C: rate constant with Cdk2 ÷ rate constant with model thiol (fold). Conditions: additional mutation C177A; for Rate constant with Cdk2 H71C: Protein: Cdk2, cysteine position H71C, in h^-1. The procedure, abridged:
(§1)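 Thiol consumption was monitored kinetically using 5 μM Cdk2 (C177A plus one introduced cysteine) in degassed phosphate buffer at pH 8 with TCEP beads. Plates were kept 1 h at room temperature before fluorescence reading, and rate constants came from exponential decay fitting.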

The target of a further assay is T5, Cdk2(S276C) (C177A) (Homo sapiens, UniProt P24941, C177A/S276C).
T5 construct: poly-histidine; made in house; host or cells: E. coli
The assay is described as follows: Kinetic thiol consumption assay with Cdk2 mutant S276C. The format is binding. Details: key to Rate enhancement, Cdk2 S276C: rate constant with Cdk2 ÷ rate constant with model thiol (fold). Conditions: additional mutation C177A; for Rate constant with Cdk2 S276C: Protein: Cdk2, cysteine position S276C, in h^-1. Summed up: as §1

In a further assay the target is T6, Cdk2(N272C) (C177A) (Homo sapiens, UniProt P24941, C177A/N272C).
T6 construct: poly-histidine; made in house; host or cells: E. coli
The assay is described as follows: Kinetic thiol consumption assay with Cdk2 mutant N272C. The format is binding. Further details: key to Rate enhancement, Cdk2 N272: rate constant with Cdk2 ÷ rate constant with model thiol (fold). The following applies: for Rate enhancement, Cdk2 N272: Cdk2 N272, additional mutation C177A; for Rate constant with Cdk2 N272C: Protein: Cdk2, cysteine position N272C, additional mutation C177A, in h^-1. Summed up:
as §1

The target in a further assay is T7, Cdk2(T182C) (C177A) (Homo sapiens, UniProt P24941, C177A/T182C).
T7 construct: poly-histidine; made in house; host or cells: E. coli
In words: Kinetic thiol consumption assay with Cdk2 mutant T182C. The format is binding. Further details: key to Rate enhancement, Cdk2 T182C: rate constant with Cdk2 ÷ rate constant with model thiol (fold). Conditions: additional mutation C177A; for Rate constant with Cdk2 T182C: Protein: Cdk2, cysteine position T182C, in h^-1. Summed up: as §1

For a further assay, the target named is T8, Cdk2(R122C) (C177A) (Homo sapiens, UniProt P24941, C177A/R122C).
T8 construct: poly-histidine; made in house; host or cells: E. coli
In words: Kinetic thiol consumption assay with Cdk2 mutant R122C. It is filed as binding. Further details: key to Rate enhancement, Cdk2 R122C: rate constant with Cdk2 ÷ rate constant with model thiol (fold). Conditions: additional mutation C177A; for Rate constant with Cdk2 R122C: Protein: Cdk2, cysteine position R122C, in h-1. The procedure, abridged:
as §1

The next assay concerns the target T9, Cdk2(S181C) (C177A) (Homo sapiens, UniProt P24941, C177A/S181C).
T9 construct: poly-histidine; made in house; host or cells: E. coli
In words: Kinetic thiol consumption assay with Cdk2 mutant S181C. It is filed as binding. Further details: key to Rate enhancement, Cdk2 S181C: rate constant with Cdk2 ÷ rate constant with model thiol (fold). Conditions: additional mutation C177A; for Rate constant with Cdk2 S181C: Protein: Cdk2, cysteine position S181C, in h^-1. The procedure, abridged: as §1

In the case of `C=CC(=O)Nc1[nH]nc(C2CC2)c1-c1ccc2c(c1)OCO2` [CA-041], in assay [1], the “Rate constant with glutathione (k(GSH))” value is on record as 0.5441 and the “Rate constant with Glutathione” value is 0.5506. For the same molecule, in assay [2], the “Rate constant with Cdk2 (k(Cdk2))” value came out at 1.146; the “Rate enhancement, Cdk2 WT” value came out at 2.081; the “Rate constant with Cdk2 WT” value is recorded as 1.146; the “k(Cdk2)/k(Cdk2_mut) rate enhancement” value is 0.5929. Also, in assay [2], the “k(Cdk2)/k(GSH) rate enhancement” value amounted to 2.106. Further, the “Rate constant with Cdk2[C177A, F80C, K278C] (k(Cdk2_mut))” value (shortened to “Rate constant … (k(Cdk2_mut))”) at Cdk2[C177A, F80C, K278C] is on record as 1.933. The “Rate enhancement, Cdk2 F80C” value at Cdk2(C177A, F80C) amounted to 0. Also, at Cdk2(H71C) (C177A), the “Rate enhancement, Cdk2 H71C” value was 0.007207 and the “Rate constant with Cdk2 H71C” value was 0.003968. On Cdk2(S276C) (C177A), the “Rate enhancement, Cdk2 S276C” value amounted to 0.0064 and the “Rate constant with Cdk2 S276C” value was 0.003524. Moreover, at Cdk2(N272C) (C177A), the “Rate enhancement, Cdk2 N272” value was found to be 0.008585 and the “Rate constant with Cdk2 N272C” value came out at 0.004727. Moreover, on Cdk2(T182C) (C177A), the “Rate enhancement, Cdk2 T182C” value is reported as 0.8554 and the “Rate constant with Cdk2 T182C” value stood at 0.471. For the same molecule, on Cdk2(R122C) (C177A), the “Rate enhancement, Cdk2 R122C” value is recorded as 0.003956 and the “Rate constant with Cdk2 R122C” value came out at 0.002178. Also, at Cdk2(S181C) (C177A), the “Rate enhancement, Cdk2 S181C” value is listed as 0.005756 and the “Rate constant with Cdk2 S181C” value is given as 0.003169.
`C=CC(=O)N1CCc2cc(-c3cccc(F)c3)ccc21` [CA-042]: in assay [1], the “Rate constant with glutathione (k(GSH))” value is 0.00825 and the “Rate constant with Glutathione” value amounted to 0.01463. Further, in assay [2], the “Rate constant with Cdk2 (k(Cdk2))” value came to 0.04257; the “Rate enhancement, Cdk2 WT” value was 2.91; the “Rate constant with Cdk2 WT” value was 0.04257; the “k(Cdk2)/k(Cdk2_mut) rate enhancement” value is given as 0.3151. Also, the “k(Cdk2)/k(GSH) rate enhancement” value in [2] is reported as 5.157. The “Rate constant … (k(Cdk2_mut))” value at Cdk2[C177A, F80C, K278C] was 0.1351. In addition, at Cdk2(C177A, F80C), the “Rate enhancement, Cdk2 F80C” value was determined as 0.4287. Moreover, the “Rate constant with Cdk2 F80C” value at Cdk2(C177A, F80C) (Protein: Cdk2, cysteine position F80C, in h^-1) turned out to be 0.006272. Besides, at Cdk2(H71C) (C177A), the “Rate enhancement, Cdk2 H71C” value stood at 0.5064 and the “Rate constant with Cdk2 H71C” value amounted to 0.007409. Moreover, at Cdk2(S276C) (C177A), the “Rate enhancement, Cdk2 S276C” value is 0.5636 and the “Rate constant with Cdk2 S276C” value was found to be 0.008245. Also, at Cdk2(N272C) (C177A), the “Rate enhancement, Cdk2 N272” value turned out to be 0.09535 and the “Rate constant with Cdk2 N272C” value was determined as 0.001395. Besides, at Cdk2(T182C) (C177A), the “Rate enhancement, Cdk2 T182C” value was found to be 5.547 and the “Rate constant with Cdk2 T182C” value is given as 0.08115. Also, at Cdk2(R122C) (C177A), the “Rate enhancement, Cdk2 R122C” value is listed as 0.1215 and the “Rate constant with Cdk2 R122C” value is 0.001778. Also, on Cdk2(S181C) (C177A), the “Rate enhancement, Cdk2 S181C” value amounted to 0.3187 and the “Rate constant with Cdk2 S181C” value was found to be 0.004663.
`C=CC(=O)NC1(c2noc(C3CC3)n2)CCCC1` [CA-044]: in assay [1], the “Rate constant with glutathione (k(GSH))” value is on record as 0.00557 and the “Rate constant with Glutathione” value is 0.008146. Also, in assay [2], the “Rate constant with Cdk2 (k(Cdk2))” value was 0.00269; the “Rate enhancement, Cdk2 WT” value is given as 0.3307; the “Rate constant with Cdk2 WT” value was 0.002694; the “k(Cdk2)/k(Cdk2_mut) rate enhancement” value is recorded as 1.749. Besides, the “k(Cdk2)/k(GSH) rate enhancement” value in assay [2] stood at 0.4838. For the same molecule, the “Rate constant … (k(Cdk2_mut))” value at Cdk2[C177A, F80C, K278C] came to 0.00154. Also, the “Rate enhancement, Cdk2 F80C” value on Cdk2(C177A, F80C) came to 0. For the same molecule, the “Rate enhancement, Cdk2 H71C” value at Cdk2(H71C) (C177A) came out at 0. Besides, at Cdk2(S276C) (C177A), the “Rate enhancement, Cdk2 S276C” value came to 0.1116 and the “Rate constant with Cdk2 S276C” value is reported as 0.0009087. At Cdk2(N272C) (C177A), the “Rate enhancement, Cdk2 N272” value worked out at 0. In addition, at Cdk2(T182C) (C177A), the “Rate enhancement, Cdk2 T182C” value came to 0.2903 and the “Rate constant with Cdk2 T182C” value is given as 0.002365. Moreover, on Cdk2(R122C) (C177A), the “Rate enhancement, Cdk2 R122C” value is 0.2302 and the “Rate constant with Cdk2 R122C” value turned out to be 0.001875. Also, on Cdk2(S181C) (C177A), the “Rate enhancement, Cdk2 S181C” value came to 0.1134 and the “Rate constant with Cdk2 S181C” value is reported as 0.0009239.
